Assay results taken from publication PMC9894920, “Development of an improved and specific inhibitor of NADPH oxidase 2 to treat traumatic brain injury” (Redox Biology, 2023).
≈ marks a conversion by molar mass, not a printed value. Like-named read-outs stand apart in the source and are kept apart here.

Legend:
[1] = tested on: NOX1-NOX5; experiment: Expi293 whole cell assays, comparison across panel of NOX family members; type: cell-based, human
Method: Given concerns about previous assays for specific NOX family members we here report the first use of the Expi293 Expression System (Thermo Scientific) to overexpress NOX1, 2, 3, 4, and 5 in excess of any endogenous NOX proteins present in these cells. Transfections were performed following the manufacturer's instructions using the plasmids for each NOX as described in Supplemental Table 2 except that the enhancer solution provided with the Expi293 system was not used because it promoted enzyme activation.
After the times indicated in Supplemental Table 2, cells were washed and 50,000 added per well of a white 96-well plate (Greiner) along with 50 μM Luminol and 2.5 U horseradish peroxidase/mL in a volume of 90 μl for NOX1, NOX2, and NOX5. Inhibitors or vehicle controls were added and cells were incubated for 20 min at 37 °C prior to activation with the indicated stimuli. For NOX3 and NOX4 (constitutively active), cells were incubated with inhibitor or vehicle control prior to the addition of luminol and HRP. Chemiluminescence was measured every 2 min for 1 s per well at 37 °C in a Varioscan Multimode reader. AUC data were analyzed using GraphPad Prism using non-linear regression analysis after expressing relative to control alone (maximum ROS production).

[2] = Aqueous kinetic solubility in PBS buffer; type: physicochemical
Method: (§1) The rat liver microsomal stability, parallel artificial membrane permeability assay (PAMPA), and aqueous kinetic solubility assay in phosphate-buffered saline (PBS) buffer were performed as described in the indicated references.

[3] = molecular target: T1, Bovine Xanthine Oxidase (Bos taurus, UniProt P80457); experiment: Xanthine oxidase / hypoxanthine luminol chemiluminescence assay; type: biochemical; conditions: xanthine oxidase with hypoxanthine; mean ± SD, n in cell; read-out: X/XO IC50
T1 construct: purchased Sigma
T1 sequence (P80457 whole entry): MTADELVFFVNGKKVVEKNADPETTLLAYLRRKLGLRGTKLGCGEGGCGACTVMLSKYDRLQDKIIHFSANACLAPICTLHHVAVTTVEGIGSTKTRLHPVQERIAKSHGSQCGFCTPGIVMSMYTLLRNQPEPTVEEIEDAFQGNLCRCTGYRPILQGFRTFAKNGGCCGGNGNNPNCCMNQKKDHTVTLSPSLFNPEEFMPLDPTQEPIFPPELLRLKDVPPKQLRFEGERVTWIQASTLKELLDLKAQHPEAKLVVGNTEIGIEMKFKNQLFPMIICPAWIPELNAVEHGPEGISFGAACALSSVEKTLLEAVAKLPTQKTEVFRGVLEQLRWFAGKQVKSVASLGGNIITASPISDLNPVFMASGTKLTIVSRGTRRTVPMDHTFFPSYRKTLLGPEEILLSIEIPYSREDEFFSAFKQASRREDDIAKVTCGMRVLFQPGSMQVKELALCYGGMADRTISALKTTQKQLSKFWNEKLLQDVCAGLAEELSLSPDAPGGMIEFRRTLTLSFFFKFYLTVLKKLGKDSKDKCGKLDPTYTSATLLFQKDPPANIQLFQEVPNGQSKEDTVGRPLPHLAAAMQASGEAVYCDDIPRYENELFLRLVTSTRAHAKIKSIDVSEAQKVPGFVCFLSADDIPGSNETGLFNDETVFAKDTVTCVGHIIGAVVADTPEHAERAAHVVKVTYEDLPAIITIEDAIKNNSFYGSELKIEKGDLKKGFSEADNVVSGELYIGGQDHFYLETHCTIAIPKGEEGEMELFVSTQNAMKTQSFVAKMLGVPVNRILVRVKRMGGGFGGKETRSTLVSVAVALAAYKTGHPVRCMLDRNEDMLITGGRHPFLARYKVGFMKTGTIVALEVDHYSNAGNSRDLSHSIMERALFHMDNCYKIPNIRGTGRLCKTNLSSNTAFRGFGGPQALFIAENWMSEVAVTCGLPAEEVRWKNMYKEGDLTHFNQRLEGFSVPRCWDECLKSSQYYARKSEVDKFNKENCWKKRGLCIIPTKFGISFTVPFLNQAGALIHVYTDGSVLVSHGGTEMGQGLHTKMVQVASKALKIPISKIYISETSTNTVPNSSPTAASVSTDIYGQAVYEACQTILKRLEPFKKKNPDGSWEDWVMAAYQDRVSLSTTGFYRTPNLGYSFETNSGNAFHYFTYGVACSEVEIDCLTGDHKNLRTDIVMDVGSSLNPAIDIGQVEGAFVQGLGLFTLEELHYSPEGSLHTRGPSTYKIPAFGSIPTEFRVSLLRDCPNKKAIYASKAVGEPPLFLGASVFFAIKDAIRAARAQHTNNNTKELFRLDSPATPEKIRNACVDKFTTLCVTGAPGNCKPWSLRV
Method: Bovine Xanthine Oxidase (Sigma) was dialyzed in PBS to remove ammonium sulfate and stored at 4 °C. Hypoxanthine was prepared by heating in DMSO. Reactions were prepared by diluting xanthine oxidase in HBSS (final concentration 1.25 mU/mL) that contained 50 μM luminol and were preincubated 5 min with control or inhibitor before the addition of hypoxanthine at a final concentration of 0.5 mM. Luminescence was measured at 24 °C as described above.

[4] = tested on: NOX2; conditions: read-out: IC50 for NOX2, originally reported; cited from earlier work
[5] = Rat liver microsomal stability; type: in vitro ADME; conditions: for half-life: SD, rat, liver microsomes, read-out: Rat_SD/Microsomes t1/2 (m)
Method: as §1

[6] = tested on: xanthine oxidase; conditions: cited from earlier work
[7] = Parallel artificial membrane permeability assay (PAMPA); type: in vitro ADME; conditions: for Papp: pH 7.4, PAMPA, pH7.4, read-out: Permeability(pH7.4) (PAMPA_Pion_Lipid 1e-6 cm/s)
Method: as §1

[8] = molecular target: T2, NOX2 (Mus musculus, UniProt Q61093); experiment: NOX2 activity in primary mouse neutrophils enriched from bone marrow; type: cell-based; conditions: SD, n = 8 mice
T2 construct: relative potencies in primary mouse neutrophils enriched from bone marrow; endogenous in cells; host or cells: primary mouse bone-marrow granulocytes
T2 sequence (Q61093 2-570 limits assumed): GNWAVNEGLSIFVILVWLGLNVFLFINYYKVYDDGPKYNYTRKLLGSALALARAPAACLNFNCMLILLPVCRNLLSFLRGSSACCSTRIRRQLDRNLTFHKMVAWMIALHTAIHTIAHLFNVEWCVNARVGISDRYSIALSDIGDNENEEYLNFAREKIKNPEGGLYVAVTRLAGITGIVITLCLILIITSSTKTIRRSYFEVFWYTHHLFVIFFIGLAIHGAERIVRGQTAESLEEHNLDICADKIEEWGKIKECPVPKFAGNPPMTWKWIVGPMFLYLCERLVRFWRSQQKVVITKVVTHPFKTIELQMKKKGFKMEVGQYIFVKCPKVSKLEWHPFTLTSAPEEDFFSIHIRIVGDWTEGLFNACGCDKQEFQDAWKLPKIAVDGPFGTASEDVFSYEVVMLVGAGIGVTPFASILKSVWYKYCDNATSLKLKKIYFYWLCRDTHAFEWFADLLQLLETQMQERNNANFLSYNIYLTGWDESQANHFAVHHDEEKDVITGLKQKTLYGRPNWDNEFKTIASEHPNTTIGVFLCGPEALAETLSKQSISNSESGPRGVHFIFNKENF
T2 sequence (Q61462 2-192 partner limits assumed): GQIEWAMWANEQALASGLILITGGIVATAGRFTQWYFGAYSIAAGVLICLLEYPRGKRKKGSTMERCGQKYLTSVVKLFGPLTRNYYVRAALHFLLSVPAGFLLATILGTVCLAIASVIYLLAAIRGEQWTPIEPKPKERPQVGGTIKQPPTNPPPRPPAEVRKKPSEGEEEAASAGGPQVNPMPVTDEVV
Method: (§2) Human blood was obtained after informed consent by the Department of Transfusion Medicine (NIH Clinical Center) and provided as de-identified specimens. Human granulocytes were isolated using Percoll density fractionation as described and NOX2 activity was assessed in white polypropylene flat bottom 96 well plates following 15 min of preincubation at 37 °C with compounds or vehicle controls using 50 μM luminol as a chemiluminescence enhancer in an assay volume of 100 μl RPMI1640 with 1.1 × 10^5 cells/well in Varioskan Lux luminometer for 30 cycles of 1 s per well (approximately 1 h).
Mouse granulocytes were isolated from bone marrow essentially as described except bones were not sterilized in ethanol and marrow was not flushed through a 100 μm strainer. Furthermore, RPMI1640 was supplemented with 10% FBS, 2 mM EDTA, and 25 mM HEPES buffer and penicillin/streptomycin was omitted. Polymorphonuclear leukocytes (PMN) concentration and purity (>90% granulocytes) were assessed microscopically using 3% acetic acid and a hemacytometer. NOX2 activity was assessed as described above with human granulocytes.

[9] = molecular target: T3, NOX2 (Homo sapiens, UniProt P04839); experiment: NOX2 activity in primary human granulocytes (PMN), luminol chemiluminescence; type: cell-based; parameters: When tested against NOX2 in primary human neutrophils; endogenous in cells; host or cells: primary human granulocytes (PMN) from donor blood; conditions: mean ± SD, n in cell; read-out: NOX-2 IC50 from PMN
T3 sequence (P04839 2-570 limits assumed): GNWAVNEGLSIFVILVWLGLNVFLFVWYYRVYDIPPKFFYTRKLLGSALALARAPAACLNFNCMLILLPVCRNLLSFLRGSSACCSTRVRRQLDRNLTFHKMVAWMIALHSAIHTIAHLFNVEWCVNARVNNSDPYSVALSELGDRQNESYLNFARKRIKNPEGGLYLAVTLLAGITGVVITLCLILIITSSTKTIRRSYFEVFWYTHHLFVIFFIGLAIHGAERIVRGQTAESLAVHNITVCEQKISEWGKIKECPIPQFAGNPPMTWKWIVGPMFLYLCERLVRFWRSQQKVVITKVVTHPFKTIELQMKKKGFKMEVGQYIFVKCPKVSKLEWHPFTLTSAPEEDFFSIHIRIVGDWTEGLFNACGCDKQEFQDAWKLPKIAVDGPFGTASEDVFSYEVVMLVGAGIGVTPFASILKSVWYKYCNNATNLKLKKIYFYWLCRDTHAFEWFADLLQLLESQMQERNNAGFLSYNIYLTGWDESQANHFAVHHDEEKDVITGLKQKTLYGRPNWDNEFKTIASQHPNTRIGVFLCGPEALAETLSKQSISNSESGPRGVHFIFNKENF
T3 sequence (P13498 2-195 partner limits assumed): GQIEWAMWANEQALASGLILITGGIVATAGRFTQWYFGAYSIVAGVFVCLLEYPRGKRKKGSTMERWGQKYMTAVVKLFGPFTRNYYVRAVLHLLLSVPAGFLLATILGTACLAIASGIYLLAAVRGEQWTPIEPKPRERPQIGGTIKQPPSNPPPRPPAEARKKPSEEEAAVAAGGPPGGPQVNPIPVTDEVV
Method: as §2

[10] = aqueous buffer, kinetic from dmso stock, read-out: Solubility

SMILES: CC(C)n1cc(-c2ccc3c(c2)N(C)CC3)c2c(NS(=O)(=O)c3ccn(C)n3)ccnc21 [GSK2795039, reference compound]
- differences in activity across the panel of NOX family members [1]: unable to demonstrate significant differences in activity
- solubility [2]: 36.7 µg/mL (≈ 81.5 µM)
- IC50 [3]: 0.603 ± 0.059 µM
- Rat_SD/Microsomes t1/2 (m) [5]: 1.02 m
- Permeability(pH7.4) (PAMPA_Pion_Lipid 1e-6 cm/s) [7]: 1034.17 1e-6 cm/s
- IC50 [8]: 2.17 ± 1.11 µM

SMILES: CN(C)C1CCc2ccc(-c3cn(C4CC4)c4nccc(N[S+](=O)([O-])c5ccn(C)n5)c34)cc21 (stereo not drawn) [NCGC00650075, CN(C)C1CCC2=C1C=C(C=C2)C3=CN(C4CC4)C5=NC=CC(N[S+]([O-])(=O)C6=NN(C)C=C6)=C35]
- solubility [2, 10]: 39.7 µg/mL (≈ 83.3 µM)
- IC50 [3]: 3.2 µM
- half-life [5]: 14 min
- IC50 [9]: 0.0555 µM
- Papp [7]: 293 ×10⁻⁶ cm/s

SMILES: CN1CCc2ccc(-c3cn(CC(F)(F)F)c4nccc(N[S+](=O)([O-])c5ccn(C)n5)c34)cc21 [NCGC00600903, CN1C=CC(=N1)[S+]([O-])(=O)NC2=C3C(=CN(CC(F)(F)F)C3=NC=C2)C4=CC5=C(CCN5C)C=C4]
- solubility [2, 10]: 12.2 µg/mL (≈ 24.9 µM)
- IC50 [3]: 0.056 ± 0.079 µM
- half-life [5]: 3.3 min
- IC50 [9]: 1.68 ± 2.07 µM
- Papp [7]: 53.6 ×10⁻⁶ cm/s

SMILES: O=[S+]([O-])(Nc1ccnc2c1c(-c1ccc3c(c1)N(C1CC1)CC31CC1)cn2C1CC1)c1ccn(C2CC2)n1 [NCGC00650101, [O-][S+](=O)(NC1=C2C(=CN(C3CC3)C2=NC=C1)C4=CC5=C(C=C4)C6(CC6)CN5C7CC7)C8=NN(C=C8)C9CC9]
- solubility [2, 10]: 36.8 µg/mL (≈ 69.9 µM)
- IC50 [3]: 1.22 ± 0.32 µM
- half-life [5]: 1.2 min
- IC50 [9]: 11.6 ± 8.72 µM
- Papp [7]: 81.8 ×10⁻⁶ cm/s

SMILES: Cn1ccc([S+](=O)([O-])Nc2ccnc3c2c(-c2ccc4c(c2)N(C2CC2)CC4)cn3CC2CCOCC2)n1 [NCGC00650068, CN1C=CC(=N1)[S+]([O-])(=O)NC2=C3C(=CN(CC4CCOCC4)C3=NC=C2)C5=CC6=C(CCN6C7CC7)C=C5]
- solubility [2, 10]: 13.1 µg/mL (≈ 24.6 µM)
- IC50 [3]: 2.3 µM
- half-life [5]: 0.9 min
- IC50 [9]: 11.8 µM
- Papp [7]: 907 ×10⁻⁶ cm/s

SMILES: Cn1ccc([S+](=O)([O-])Nc2ccnc3c2c(-c2ccc4c(c2)C(=O)CC4)cn3C2CC2)n1 [NCGC00650062, CN1C=CC(=N1)[S+]([O-])(=O)NC2=C3C(=CN(C4CC4)C3=NC=C2)C5=CC6=C(CCC6=O)C=C5]
- solubility [2]: 38.6 µg/mL (≈ 86.3 µM)
- IC50 [3]: 3.11 µM
- Rat_SD/Microsomes t1/2 (m) [5]: 17.3 m
- IC50 [9]: > 20 µM
- Permeability(pH7.4) (PAMPA_Pion_Lipid 1e-6 cm/s) [7]: 88.1 1e-6 cm/s
